Data published in patent US8663669B2, “Pesticide treatment of soils or substrates with sulphur compounds” (Arkema France, priority 2002, dated 2014).

How the values were obtained:
Sclerotinia sclerotiorum = assay: Fungicidal efficacy by gassing, sclerotia; format: cell-based; set-up: Vitality score Nm (over 19 days): scale not given here; Reduction in viability RV / Reduction in vitality score RNm: unit not given here; conditions: for Reduction in viability RV / Reduction in vitality score RNm: compared with the control
Protocol: These four organisms are the following:
Sclerotinia sclerotiorum: polyphagous fungus which attacks mainly melon crops.
• Sclerotinia sclerotiorum: sclerotia • Sclerotium rolfsii: sclerotia • Rhizoctonia solani: colonized barley grains (mycelium and sclerotia) • Phytophthora cactorum: colonized millet grains (mycelium, sporangia and oospores) Preparation of the Fungi (24 h Before the Gassing Operation) 1. Preparation of the sclerotia of Sclerotinia sclerotiorum and of Sclerotium rolfsii: The fungi are cultured on malt agar medium until the sclerotia are obtained. The sclerotia are collected in a sterile manner and stored dry in empty Petri dishes until they are used. The sclerotia used for the trial are over 3 months old and are perfectly dormant. 2. Preparation of Phytophthora cactorum and of Rhizoctonia solani: The millet and barley used for the multiplication of the two fungi are moistened with ultrapure water by immersing for 24 hours. The grains are then slightly drained and then distributed into flasks and autoclaved (3 autoclavings at 110° C. for 20 minutes, 3 times at 24 hour intervals). Fragments of fungal culture are introduced into the flasks which are then incubated at 22° C.±2° C. (white light 18 h) until homogeneous colonization is obtained. The grains are then removed from the flasks in a sterile manner, dried in the sterile stream of a safety cabinet and then stored in the dry state until they are used. Conditions for Gassing and for Desorption
All the batches of fungi to be treated are placed for a few hours at the trial temperature (20° C.). Between 35 and 300 units of fungi or “propagules” (grains or sclerotia) are subjected to gassing during each trial.
Each fumigation chamber comprising to one or more species of fungi corresponds to a glass round-bottomed flask which is impervious to the gas and has a volume of 11 litres. Each round-bottomed flask is equipped with branch connections, one at the bottom for introducing the liquid DMDS, one at the top for collecting the air sample with a syringe.
Before introducing the gas, a partial vacuum (−500 mbar) is established in the round-bottomed flask with a vacuum pump. This makes it possible, on the one hand, to avoid the phenomenon of excess pressure due to the expansibility of DMDS in the round-bottomed flask and, on the other hand, to promote better homogeneity of the air-gas mixture in the first few seconds which follow injection. The DMDS (weighed accurately to the mg) is injected with a syringe, in liquid form, through the bottom branch connection, that is to say under the screen placed at half height of the round-bottomed flask and supporting the batches of fungi. After introducing the product, the internal pressure of the round-bottomed flask is re-established at atmospheric pressure. A magnetic stirrer operates during the entire duration of the treatment in order to properly homogenize the air-gas mixture.
At the end of the gassing, the cover for the round-bottomed flask is removed. One minute after this operation, the batches of fungi gassed are taken out and left in the open air for 15 minutes for desorption of the DMDS. They are then transferred into a Petri dish, the latter remaining open for 5 minutes to allow perfect desorption of the gas.
The mean concentration (C in g/m^3) of DMDS in the fumigation chamber after homogenization of the gas in the chamber air is measured by GC with an FID detector and, taking into account the duration of exposure (T in hours), the product CT (g·h/m^3) is calculated which, in the field of fumigation, is the key parameter to be considered, since the biological efficacy of a gas towards a given pathogenic agent is only effective if the latter was exposed to a certain mean concentration C for a certain duration of exposure T, that is to say to a certain value of the product CT, a value (or dose) which can be reached in different ways: low concentrations and long duration of exposure or conversely. […]

[1] = system: lettuce (variety Sprintia); assay: Phytotoxicity on lettuce, in a greenhouse; format: in vivo; conditions: 150 kg/ha (formulation A)
Source text: Absence of phytotoxicity on lettuce of DMDS, applied at 150 kg/ha, in the open, in a greenhouse.
Lettuce variety: Sprintia
Treatment: DMDS is applied in the form of formulation A with the aid of a jet sprayer, and then incorporated over a depth of about 5 cm with a rotary hoe. The soil is then covered with a black polyethylene film.
Planting: 7 days after the treatment, at the rate of 160 000 plants/ha
Harvesting: 2 months and 20 days after planting.

[2] = CT 1 050 g·h/m^3 (C 15.91 g/m^3, T 66 h)
[3] = CT 1 402 g·h/m^3 (C 21.24 g/m^3, T 66 h)
[4] = CT 1 450 g·h/m^3 (C 30.96 g/m^3, T 48 h)
[5] = CT 1 899 g·h/m^3 (C 28.77 g/m^3, T 66 h)
[6] = CT 1 981 g·h/m^3 (C 30.02 g/m^3, T 66 h)
[7] = CT 2 460 g·h/m^3 (C 51.25 g/m^3, T 48 h)
[8] = CT 2 471 g·h/m^3 (C 37.44 g/m^3, T 66 h)
[9] = CT 2 837 g·h/m^3 (C 42.98 g/m^3, T 66 h)
[10] = CT 2 974 g·h/m^3 (C 45.06 g/m^3, T 66 h)
[11] = CT 3 169 g·h/m^3 (C 48.02 g/m^3, T 66 h)
[12] = CT 3 467 g·h/m^3 (C 52.53 g/m^3, T 66 h), called an abnormal point
[13] = CT 419 g·h/m^3 (C 17.46 g/m^3, T 24 h)
[14] = CT 625 g·h/m^3 (C 26.04 g/m^3, T 24 h)
[15] = CT 703 g·h/m^3 (C 29.29 g/m^3, T 24 h)
[16] = CT 907 g·h/m^3 (C 37.79 g/m^3, T 24 h)

CSSC [DMDS, dimethyl disulphide]
Viability V (Sclerotinia sclerotiorum; [2]): 41.8% | Vitality score Nm (over 19 days) (Sclerotinia sclerotiorum; [2]): 5.1 | Reduction in viability RV (Sclerotinia sclerotiorum; [2]): 56.1 | Reduction in vitality score RNm (Sclerotinia sclerotiorum; [2]): 63.6 | Viability V (Sclerotinia sclerotiorum; [3]): 46.8% | Vitality score Nm (over 19 days) (Sclerotinia sclerotiorum; [3]): 1.3 | Reduction in viability RV (Sclerotinia sclerotiorum; [3]): 50.9 | Reduction in vitality score RNm (Sclerotinia sclerotiorum; [3]): 90.6 | Viability V (Sclerotinia sclerotiorum; [4]): 29.8% | Vitality score Nm (over 19 days) (Sclerotinia sclerotiorum; [4]): 1.0 | Reduction in viability RV (Sclerotinia sclerotiorum; [4]): 65.8 | Reduction in vitality score RNm (Sclerotinia sclerotiorum; [4]): 92.1 | Viability V (Sclerotinia sclerotiorum; [5]): 29.6% | Vitality score Nm (over 19 days) (Sclerotinia sclerotiorum; [5]): 3.6 | Reduction in viability RV (Sclerotinia sclerotiorum; [5]): 68.9 | Reduction in vitality score RNm (Sclerotinia sclerotiorum; [5]): 74.8 | Viability V (Sclerotinia sclerotiorum; [6]): 20.3% | Vitality score Nm (over 19 days) (Sclerotinia sclerotiorum; [6]): 2.7 | Reduction in viability RV (Sclerotinia sclerotiorum; [6]): 78.7 | Reduction in vitality score RNm (Sclerotinia sclerotiorum; [6]): 81.2 | Viability V (Sclerotinia sclerotiorum; [7]): 14.6% | Vitality score Nm (over 19 days) (Sclerotinia sclerotiorum; [7]): 0.7 | Reduction in viability RV (Sclerotinia sclerotiorum; [7]): 83.2 | Reduction in vitality score RNm (Sclerotinia sclerotiorum; [7]): 94.9 | Viability V (Sclerotinia sclerotiorum; [8]): 32.9% | Vitality score Nm (over 19 days) (Sclerotinia sclerotiorum; [8]): 4.6 | Reduction in viability RV (Sclerotinia sclerotiorum; [8]): 67.1 | Reduction in vitality score RNm (Sclerotinia sclerotiorum; [8]): 70.5 | Viability V (Sclerotinia sclerotiorum; [9]): 14.1% | Vitality score Nm (over 19 days) (Sclerotinia sclerotiorum; [9]): 1.8 | Reduction in viability RV (Sclerotinia sclerotiorum; [9]): 85.2 | Reduction in vitality score RNm (Sclerotinia sclerotiorum; [9]): 87.5 | Viability V (Sclerotinia sclerotiorum; [10]): 11.2% | Vitality score Nm (over 19 days) (Sclerotinia sclerotiorum; [10]): 1.6 | Reduction in viability RV (Sclerotinia sclerotiorum; [10]): 88.8 | Reduction in vitality score RNm (Sclerotinia sclerotiorum; [10]): 89.9 | Viability V (Sclerotinia sclerotiorum; [11]): 0% | Vitality score Nm (over 19 days) (Sclerotinia sclerotiorum; [11]): 0 | Reduction in viability RV (Sclerotinia sclerotiorum; [11]): 100 | Reduction in vitality score RNm (Sclerotinia sclerotiorum; [11]): 100 | Viability V (Sclerotinia sclerotiorum; [12]): 32.3% | Vitality score Nm (over 19 days) (Sclerotinia sclerotiorum; [12]): 3.3 | Reduction in viability RV (Sclerotinia sclerotiorum; [12]): 67.7 | Reduction in vitality score RNm (Sclerotinia sclerotiorum; [12]): 79.0 | Viability V (Sclerotinia sclerotiorum; [13]): 89.7% | Vitality score Nm (over 19 days) (Sclerotinia sclerotiorum; [13]): 13.3 | Reduction in viability RV (Sclerotinia sclerotiorum; [13]): −3.0 | Reduction in vitality score RNm (Sclerotinia sclerotiorum; [13]): −3.6 | Viability V (Sclerotinia sclerotiorum; [14]): 87.8% | Vitality score Nm (over 19 days) (Sclerotinia sclerotiorum; [14]): 12.8 | Reduction in viability RV (Sclerotinia sclerotiorum; [14]): −0.8 | Reduction in vitality score RNm (Sclerotinia sclerotiorum; [14]): 0.1 | Viability V (Sclerotinia sclerotiorum; [15]): 85.4% | Vitality score Nm (over 19 days) (Sclerotinia sclerotiorum; [15]): 12.6 | Reduction in viability RV (Sclerotinia sclerotiorum; [15]): 2.0 | Reduction in vitality score RNm (Sclerotinia sclerotiorum; [15]): 2.2 | Viability V (Sclerotinia sclerotiorum; [16]): 81.6% | Vitality score Nm (over 19 days) (Sclerotinia sclerotiorum; [16]): 12.0 | Reduction in viability RV (Sclerotinia sclerotiorum; [16]): 6.3 | Reduction in vitality score RNm (Sclerotinia sclerotiorum; [16]): 6.6 | Visual observations on the field: sign of phytotoxicity ([1]; 1 and 2 months after planting): no sign of phytotoxicity | Average weight of the lettuce at harvest ([1]; harvest 2 months and 20 days after planting, control 490 g): 505 g
